Laboratory results as given in ChEMBL document CHEMBL1667832, “Potent and selective cyclohexyl-derived imidazopyrazine insulin-like growth factor 1 receptor inhibitors with in vivo efficacy” (Bioorg Med Chem Lett, 2011).

Key:
[1] = AUC in mouse at 5 mg/kg, po; assay type: ADME, organism-based; parameters: dose 5 mg/kg, route oral; details: plasma
[2] = Cmax in mouse at 5 mg/kg, po; assay type: ADME, organism-based; parameters: dose 5 mg/kg, route oral; details: in vivo
[3] = Oral bioavailability in mouse at 5 mg/kg; assay type: ADME, organism-based; details: in vivo
[4] = Volume of distribution at steady state in mouse at 2 mg/kg, iv; assay type: ADME, organism-based; parameters: dose 2 mg/kg, route intravenous; details: in vivo, read-out: Vdss
[5] = Clearance in mouse at 2 mg/kg, iv; assay type: ADME, organism-based; parameters: dose 2 mg/kg, route intravenous; details: in vivo
[6] = Permeability of the compound at pH 5 by PAMPA; assay type: ADME; details: read-out: permeability
[7] = Permeability of the compound at pH 7.4 by PAMPA; assay type: ADME; details: read-out: permeability
[8] = AUC in mouse at 25 mg/kg, po; assay type: ADME, organism-based; parameters: dose 25 mg/kg, route oral; details: plasma
[9] = Cmax in mouse at 25 mg/kg, po; assay type: ADME, organism-based; parameters: dose 25 mg/kg, route oral; details: in vivo
[10] = Oral bioavailability in mouse at 25 mg/kg; assay type: ADME, organism-based; details: in vivo
[11] = Volume of distribution at steady state in mouse at 5 mg/kg, iv; assay type: ADME, organism-based; parameters: dose 5 mg/kg, route intravenous; details: in vivo, read-out: Vdss
[12] = Clearance in mouse at 5 mg/kg, iv; assay type: ADME, organism-based; parameters: dose 5 mg/kg, route intravenous; details: in vivo
[13] = Physiological stability of the compound in simulated intestinal fluid assessed as formation of 4-(8-amino-1-(8-fluoro-2-phenylquinolin-7-yl)imidazo[1,5-a]pyrazin-3-yl)cyclohexanecarboxylic acid; assay type: physicochemical; details: simulated gi fluid
[14] = Antitumor activity against human GEO cells xenografted in nu/nu CD-1 mouse assessed as tumor growth inhibition at 60 mg/kg, po qd for 14 days; assay type: functional; details: 336 h, read-out: TGI
Mus musculus [15] = test: Toxicity in human GEO cells xenografted nu/nu CD-1 mouse assessed as mortality at 60 mg/kg, po qd for 14 days; assay type: organism-based; parameters: dose 60 mg/kg, route oral; details: in vivo, 336 h
Mus musculus [16] = test: Toxicity in human GEO cells xenografted nu/nu CD-1 mouse assessed as effect on blood glucose level at 60 mg/kg, po qd for 14 days; assay type: organism-based; parameters: dose 60 mg/kg, route oral; details: in vivo, 336 h
[17] = Genotoxicity in Salmonella Typhimurium by Ames test in presence of S9 fractions; assay type: toxicity, S9 Fraction; details: salmonella enterica subsp. enterica serovar typhimurium
Cytochrome P450 1A2 = target: T1, Cytochrome P450 1A2 (Homo sapiens, UniProt P05177); test: Inhibition of CYP1A2; assay type: ADME
T1 sequence (P05177 whole entry): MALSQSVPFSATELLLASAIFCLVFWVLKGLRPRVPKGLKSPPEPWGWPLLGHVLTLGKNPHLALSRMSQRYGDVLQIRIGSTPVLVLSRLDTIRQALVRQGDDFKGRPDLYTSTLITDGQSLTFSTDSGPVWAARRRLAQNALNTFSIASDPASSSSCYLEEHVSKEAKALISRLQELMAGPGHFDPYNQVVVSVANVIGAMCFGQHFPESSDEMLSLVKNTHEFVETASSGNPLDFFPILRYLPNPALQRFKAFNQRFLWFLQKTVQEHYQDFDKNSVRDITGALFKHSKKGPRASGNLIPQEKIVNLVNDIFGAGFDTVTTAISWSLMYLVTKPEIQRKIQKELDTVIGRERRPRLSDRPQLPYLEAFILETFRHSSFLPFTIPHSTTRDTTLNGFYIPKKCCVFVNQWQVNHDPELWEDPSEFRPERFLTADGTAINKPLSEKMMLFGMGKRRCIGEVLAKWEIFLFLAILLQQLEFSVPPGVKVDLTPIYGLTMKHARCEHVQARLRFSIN

Cytochrome P450 2C9 = Cytochrome P450 2C9 (Homo sapiens, UniProt P11712); test: Inhibition of CYP2C9; assay type: ADME
Sequence of Cytochrome P450 2C9 (P11712 whole entry): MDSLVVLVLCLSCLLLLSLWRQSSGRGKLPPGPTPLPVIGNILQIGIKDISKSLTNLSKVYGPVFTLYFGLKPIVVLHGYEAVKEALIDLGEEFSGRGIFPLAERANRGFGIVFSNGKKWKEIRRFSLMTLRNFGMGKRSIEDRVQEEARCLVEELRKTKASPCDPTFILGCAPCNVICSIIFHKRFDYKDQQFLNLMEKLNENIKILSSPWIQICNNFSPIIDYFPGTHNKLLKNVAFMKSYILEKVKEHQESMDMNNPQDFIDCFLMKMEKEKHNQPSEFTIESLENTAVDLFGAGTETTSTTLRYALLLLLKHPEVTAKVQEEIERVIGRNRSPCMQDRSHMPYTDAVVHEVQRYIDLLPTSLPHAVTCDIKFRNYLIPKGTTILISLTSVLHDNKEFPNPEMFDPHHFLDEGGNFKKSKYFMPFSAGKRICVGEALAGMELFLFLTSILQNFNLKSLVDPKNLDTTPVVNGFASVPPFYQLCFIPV

Cytochrome P450 2C19 = Cytochrome P450 2C19 (Homo sapiens, UniProt P33261); test: Inhibition of CYP2C19; assay type: ADME
Sequence of Cytochrome P450 2C19 (P33261 whole entry): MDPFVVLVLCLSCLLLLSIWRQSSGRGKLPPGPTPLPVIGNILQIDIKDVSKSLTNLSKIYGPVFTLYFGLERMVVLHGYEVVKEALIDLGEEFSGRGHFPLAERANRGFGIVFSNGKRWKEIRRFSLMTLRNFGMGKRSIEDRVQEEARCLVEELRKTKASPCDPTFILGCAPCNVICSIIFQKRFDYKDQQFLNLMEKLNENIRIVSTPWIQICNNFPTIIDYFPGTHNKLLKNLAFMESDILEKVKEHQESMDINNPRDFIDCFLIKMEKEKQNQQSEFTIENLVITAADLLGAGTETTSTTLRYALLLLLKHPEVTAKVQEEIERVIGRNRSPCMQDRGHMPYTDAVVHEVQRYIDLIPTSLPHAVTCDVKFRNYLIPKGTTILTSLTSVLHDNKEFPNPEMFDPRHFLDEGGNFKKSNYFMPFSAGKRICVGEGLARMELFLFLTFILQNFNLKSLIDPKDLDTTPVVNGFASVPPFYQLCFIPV

Cytochrome P450 2D6 = Cytochrome P450 2D6 (Homo sapiens, UniProt P10635); test: Inhibition of CYP2D6; assay type: ADME
Sequence of Cytochrome P450 2D6 (P10635 whole entry): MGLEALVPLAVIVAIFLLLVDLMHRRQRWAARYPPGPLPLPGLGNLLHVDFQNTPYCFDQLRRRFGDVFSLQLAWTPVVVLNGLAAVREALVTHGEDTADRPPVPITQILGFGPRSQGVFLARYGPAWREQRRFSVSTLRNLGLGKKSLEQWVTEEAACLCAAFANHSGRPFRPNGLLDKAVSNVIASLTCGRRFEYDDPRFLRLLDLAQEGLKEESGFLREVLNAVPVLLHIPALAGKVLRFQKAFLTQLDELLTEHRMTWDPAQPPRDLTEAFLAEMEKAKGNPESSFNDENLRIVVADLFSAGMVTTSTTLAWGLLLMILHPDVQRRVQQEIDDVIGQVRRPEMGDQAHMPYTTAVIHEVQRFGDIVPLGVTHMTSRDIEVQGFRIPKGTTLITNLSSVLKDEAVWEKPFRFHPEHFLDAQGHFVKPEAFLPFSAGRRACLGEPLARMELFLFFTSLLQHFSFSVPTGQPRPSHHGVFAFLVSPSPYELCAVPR

[18] = Physiological stability of the compound in simulated gastric fluids assessed as formation of 4-(8-amino-1-(8-fluoro-2-phenylquinolin-7-yl)imidazo[1,5-a]pyrazin-3-yl)cyclohexanecarboxylic acid at 2 uM; assay type: physicochemical; details: simulated gi fluid
[19] = Physiological stability of the compound in simulated intestinal fluids assessed as formation of 4-(8-amino-1-(8-fluoro-2-phenylquinolin-7-yl)imidazo[1,5-a]pyrazin-3-yl)cyclohexanecarboxylic acid at 2 uM; assay type: physicochemical; details: simulated gi fluid
Cytochrome P450 3A4 = Cytochrome P450 3A4 (Homo sapiens, UniProt P08684); test: Inhibition of CYP3A4; assay type: ADME
Sequence of Cytochrome P450 3A4 (P08684 whole entry): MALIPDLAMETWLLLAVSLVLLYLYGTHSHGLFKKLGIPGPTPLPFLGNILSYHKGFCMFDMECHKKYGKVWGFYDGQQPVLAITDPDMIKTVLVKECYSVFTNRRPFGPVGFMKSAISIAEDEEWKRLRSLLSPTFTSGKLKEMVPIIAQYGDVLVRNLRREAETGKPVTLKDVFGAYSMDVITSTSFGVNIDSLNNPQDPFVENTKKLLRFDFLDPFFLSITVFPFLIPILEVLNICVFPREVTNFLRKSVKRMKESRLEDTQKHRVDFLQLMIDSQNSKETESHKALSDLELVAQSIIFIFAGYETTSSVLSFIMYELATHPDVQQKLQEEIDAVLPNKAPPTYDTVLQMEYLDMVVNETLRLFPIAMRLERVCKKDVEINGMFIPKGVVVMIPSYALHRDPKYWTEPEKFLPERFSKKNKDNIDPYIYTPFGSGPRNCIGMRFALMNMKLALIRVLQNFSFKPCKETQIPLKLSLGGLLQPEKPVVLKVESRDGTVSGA

Row | SMILES | Papp [6] | Papp [7] | AUC [8] | Cmax [9] | bioavailability [10] | Vd [11] | clearance [12] | further results
1 | Nc1nccn2c1c(-c1ccc3ccc(-c4ccccc4)nc3c1F)nc2[C@H]1CC[C@H](CO)CC1 | 880 ×10⁻⁶ cm/s | > 1000 ×10⁻⁶ cm/s |  |  |  |  |  | AUC [1]: 100 ng·h/mL; Cmax [2]: 110 nM; bioavailability [3]: 23%; Vd [4]: 7 L/kg; clearance [5]: 197 mL/min/kg
2 | Nc1nccn2c1c(-c1ccc3ccc(-c4ccccc4)nc3c1F)nc2[C@H]1CC[C@H](C(=O)Nc2nc3ccccc3[nH]2)CC1 | 538 ×10⁻⁶ cm/s | 766 ×10⁻⁶ cm/s | 158000 ng·h/mL | 28000 nM | 50% | 0.43 L/kg | 1 mL/min/kg | inhibition in vivo at 60 mg/kg [14]: 98%; Activity (Mus musculus [15]): Non-toxic; Activity (Mus musculus [16]): Non-toxic; Activity [17]: Non-toxic; IC50 (Cytochrome P450 1A2): > 20 µM; IC50 (Cytochrome P450 2C9): 9.8 µM; IC50 (Cytochrome P450 2C19): > 20 µM; IC50 (Cytochrome P450 2D6): > 20 µM; Stability [18]: Stable; Stability [19]: Stable; IC50 (Cytochrome P450 3A4): > 20 µM

Now from value to molecule, other results behind:

Row | Papp [6] | Papp [7] | AUC [8] | Cmax [9] | bioavailability [10] | Vd [11] | clearance [12] | SMILES | further results
3 | > 1000 ×10⁻⁶ cm/s | > 1000 ×10⁻⁶ cm/s | 7970 ng·h/mL | 5500 nM | 51% | 2.8 L/kg | 26 mL/min/kg | Nc1nccn2c1c(-c1ccc3ccc(-c4ccccc4)nc3c1F)nc2[C@H]1CC[C@H](C(=O)O)CC1 | 
4 | 45 ×10⁻⁶ cm/s | 63 ×10⁻⁶ cm/s | 3570 ng·h/mL | 1900 nM | 24% | 2.6 L/kg | 38 mL/min/kg | Nc1nccn2c1c(-c1ccc3ccc(-c4ccccc4)nc3c1F)nc2[C@H]1CC[C@H](C(N)=O)CC1 | 
5 | 73 ×10⁻⁶ cm/s | 86 ×10⁻⁶ cm/s | 297 ng·h/mL | 130 nM | 5% | 3.2 L/kg | 73 mL/min/kg | Nc1nccn2c1c(-c1ccc3ccc(-c4ccccc4)nc3c1F)nc2[C@H]1CC[C@H](C(=O)Nc2nncs2)CC1 | Stability [13]: Unstable
